Earlier results as cited in patent publication US20020120149A1, “Substituted hydrazine derivatives” (priority 2000, published 2002).

System: NMDA receptor
Settings: in vitro at concentrations at which clinical efficacy is seen

increase in NMDA receptor activity: ~40%
Structure (SMILES): O=C(CCCN1CCC(O)(c2ccc(Cl)cc2)CC1)c1ccc(F)cc1 [haloperidol]
